Measured values reported in patent US20260151467A1, “METHOD FOR TREATING CANCER” (THE CHILDREN'S MEDICAL CENTER CORPORATION, priority 2018, published 2026).

Tests used:
CCRF-CEM cells = experiment: Viable cell counts (trypan blue) of CCRF-CEM cells treated with asparaginase and other agents; type: cell-based, human; details: for effect on Wnt-induced sensitization to asparaginase: shRNA-transduced cells, rapamycin 1 nM, RAD001 10 nM, AZD2014 10 nM; for sensitization to asparaginase by isoform-selective GSK3 inhibitor: 8 days (FIG. 4a)
Description: (§1) Cells (25,000 per well) were seeded in 100 μl of complete growth medium in 96-well plates and incubated with chemotherapeutic agents or vehicle. T-ALL cells were split every 48 hours in a 1:5 ratio. Briefly, 20 μl of cells were mixed with 80 μl fresh culture medium, supplemented with vehicle or chemotherapeutic drugs at the indicated doses. AML cells were split every 72 hours as described above. Cell viability was assessed by counting viable cells based on trypan blue vital dye staining (Invitrogen), according to the manufacturer's instructions. Chemotherapeutic drugs included: PEG-asparaginase (“oncaspar”, Shire, Lexington, MA), dexamethasone (Sigma-Aldrich), vincristine (Selleckchem, Houston, TX), doxorubicin (Sigma-Aldrich), 6-mercaptopurine (Abcam, Cambridge, UK), CHIR99021 (Selleckchem), bortezomib (Selleckchem), rapamycin (Selleckchem), RAD001 (Selleckchem), AZD2014 (Selleckchem), and Wnt3A (R&D systems, Minneapolis, MN). BRD0705 and […] were synthesized as described^15. Caspase 3/7 activity was assessed using the Caspase Glo 3/7 Assay (Promega, Madison, WI) according to the manufacturer's instructions.

[1] = system: APC-mutant CRC patient-derived xenograft; experiment: APC-mutant human CRC patient-derived xenograft in nude mice; type: in vivo, mouse; details: asparaginase 1000 U/kg×1 dose; BRD0705 every 12 hours×21 days
Description: For implantation of APC mutant human CRC PDX, patient tumor material was collected in PBS and kept on wet ice for engraftment within 24 h after resection. Upon arrival, necrotic and supporting tissues were carefully removed using a surgical blade. Approximately 1 mm×1 mm tissue fragments were implanted subcutaneously into the flank region of male nude mice, as described (Bullman et al., 2017). For injection of intestinal organoids (Rspo3; p53; Kras, or Apc; p53; Kras), per mouse one full […] well of organoids was injected subcutaneously.
As soon as tumors reached a volume of approximately 150 mm3, treatment of mice was begun. […] Vehicle was formulated as previously described (Wagner et al., 2018).
After start of treatment, body weight and tumor size were evaluated every other day. Tumor size was assessed by caliper measurements and the approximate volume of the mass was calculated using the formula (l×w×w)×(π/6), where 1 is the major tumor axis and w is the minor tumor axis.

[2] = system: asparaginase-resistant T-ALL patient-derived xenograft; experiment: T-ALL patient-derived xenograft in NRG mice, survival; type: in vivo, mouse
Description: Mice were exposed to a sub-lethal dose of radiation (4.5 Gy) and subsequently injected with human leukemia cells. All injections were performed by tail vein injection. Blood collections were performed to monitor leukemia onset in mice injected with leukemic cells, which was assessed by staining for human CD45 expression using anti-human CD45-PE-Cy7 (1:400, BD #560915) antibody staining. As soon as leukemia engraftment was confirmed based on ≥5% human leukemia cells in the peripheral blood, treatment of mice was begun. Asparaginase (1,000 U/kg) or PBS were injected by tail vein injection as a single dose on day 1 of drug treatment, and BRD0705 (15 mg/kg) or vehicle were given every 12 hours for 12 days by oral gavage. Vehicle was formulated as previously described.^15 Mice were anesthetized with isoflurane (Patterson Veterinary, Greeley, CO) prior to gavage. After start of treatment, body weight was monitored every third day. To assess bilirubin levels, mandibular blood vein collection was performed, and bilirubin levels were measured in the Boston Children's Hospital clinical laboratory. The primary endpoint of this experiment was survival. Mice were euthanized as soon as they developed weight loss greater than 15% or signs/symptoms of progressing disease. Post-mortem analysis of leukemic burden was performed by extracting bone marrow cells, which were filtered through a […] mesh filter and red blood cells were lysed using the BD Biosciences Red Blood Cell Lysis reagent (BD #555899). Isolated bone marrow cells were stained for assessment of leukemic burden using following antibodies from BD Biosciences: Anti-human CD4-APC-Cy7 (1:100, BD #561839) and anti-human CD8-PerCP-Cy5.5 (1:100, BD #560662).

SW-480 cells = experiment: Chemotherapy response of colon cancer cell lines (trypan blue counts), SW-480; type: cell-based, human; details: 10 days; Rspondin3 75 ng/ml and Wnt3a 100 ng/ml; inhibitors 1 μM
Description: (§2) Cells (100,000 per well) were seeded in […] of complete growth medium in 12-well plates and incubated with chemotherapeutic agents or vehicle. Cells were split every 48 hours and cell viability was assessed by counting viable cells based on trypan blue vital dye staining (Invitrogen), according to the manufacturer's instructions. Chemotherapeutic drugs included: asparaginase (pegaspargase, Shire, Lexington, MA), CHIR99021 (Selleckchem), recombinant human Wnt3A protein (R&D systems, Minneapolis, MN) and recombinant human R-Spondin 3 protein (R&D systems, Minneapolis, MN). BRD0705 and BRD3731 were synthesized as described (Wagner et al., 2018). Caspase 3/7 activity was assessed using the Caspase Glo 3/7 Assay (Promega, Madison, WI) according to the manufacturer's instructions.

HCT-15 cells = experiment: Chemotherapy response of colon cancer cell lines (trypan blue counts), HCT-15; type: cell-based, human; details: 10 days; Rspondin3 75 ng/ml and Wnt3a 100 ng/ml; inhibitors 1 μM
Description: as §2

Apc-deficient organoids = experiment: Chemotherapy response in mouse intestinal organoids, Apc-deficient; type: cell-based; details: asparaginase 100 U/L, BRD0705 1 μM or both, 10 days
Description: For assessment of chemotherapy response in mouse intestinal organoids, Apc-deficient and Rspo3 fusion organoids were cultured in basal organoid medium (medium not containing murine Wnt3A, murine Noggin and human R-spondin1 protein). A full 0.95 cm2 well of organoids was split into new wells, aiming to obtain approximately 25 organoids per well. Organoids were split according to previously published protocols (O'Rourke et al., 2016). Matrigel and basal organoid culture medium were supplemented with vehicle or chemotherapeutic agents, and split every 48 hours. After 10 days in culture, total organoid numbers per wells were counted by light microscopy. Microscopy was performed using an 100× objective on an Axio Imager A1 microscope (Zeiss, Oberkochen, Germany), with images captured using a CV-A10 digital camera (Jai, Yokohama, Japan) and Cytovision software (Leica Biosystems, Wetzlar, Germany).
Organoids touching the edge of a well were excluded from counting. Images were taken from a representative of three independent experiments and analyzed with ImageJ Software (Schneider et al., 2012).

[3] = system: T-ALL, acute myeloid leukemia and hypodiploid B-ALL cell lines; experiment: Asparaginase sensitization across a panel of treatment-resistant acute leukemia cell lines (trypan blue counts); type: cell-based, human; details: CHIR99021 1 μM, 8 days
Description: as §1

[4] = system: normal human CD34+ hematopoietic progenitors; experiment: Viable cell counts of normal CD34+ hematopoietic progenitors; type: cell-based; details: CHIR99021 1 μM, day 4
Source text: Cell lines and cell culture. 293T cells, T-ALL cell lines, AML cell lines and B-ALL cell lines were obtained from ATCC (Manassas, VA, USA), DSMZ (Braunschweig, Germany), the A. Thomas Look laboratory (Boston, MA, USA) or Alex Kentsis laboratory (New York, NY, USA) and cultured in DMEM, RPMI 1640 or MEM alpha (Thermo Fisher Scientific) with 10% or 20% fetal bovine serum (FBS, Sigma-Aldrich, Saint Louis, MO) or TET system approved FBS (Clontech, Mountain View, CA) and 1% penicillin/streptomycin (Thermo Fisher Scientific) at 37° C., 5% CO2. Human CD34+ progenitor cells from mobilized peripheral blood of healthy donors were obtained from Fred Hutchinson Cancer Research Center (Seattle, WA, USA) (e.g., found on the world wide web at sharedresources.fredhutch.org/products/cd34-cells). […]
Cells (25,000 per well) were seeded in 100 μl of complete growth medium in 96-well plates and incubated with chemotherapeutic agents or vehicle. […] Cell viability was assessed by counting viable cells based on trypan blue vital dye staining (Invitrogen), according to the manufacturer's instructions. […] Caspase 3/7 activity was assessed using the Caspase Glo 3/7 Assay (Promega, Madison, WI) according to the manufacturer's instructions.

CCD-841 cells = experiment: Viable cell counts of normal colonic epithelium cells; type: cell-based, human; details: CHIR99021 1 μM, 10 days
Description: as §2

CNC(=O)c1cccc(-c2ccc3c(N4CCOC[C@@H]4C)nc(N4CCOC[C@@H]4C)nc3n2)c1 [AZD2014]
effect on Wnt-induced sensitization to asparaginase (CCRF-CEM cells; 8 days): had no effect

CC[C@@]1(c2ccccc2)C2=C(CC(C)(C)CC2=O)Nc2[nH]ncc21 [BRD0705]
activity on tumor growth [1]: no activity | sensitization to asparaginase by isoform-selective GSK3 inhibitor (CCRF-CEM cells): effectively sensitizes | difference in survival between vehicle and monotherapy groups (log-rank) ([2]; FIG. 4D, Kaplan-Meier): not significant | efficacy against xenograft (survival) ([2]; asparaginase 1,000 U/kg i.v. single dose, BRD0705 15 mg/kg oral gavage every 12 hours for 12 days): highly resistant | sensitization to asparaginase (SW-480 cells): sensitized | sensitization to asparaginase (HCT-15 cells): sensitized | toxicity to organoids (viable organoid count) (Apc-deficient organoids): little toxicity

CC(C)(C)Cc1[nH]nc2c1[C@](C)(c1ccccc1)C1=C(CC(C)(C)CC1=O)N2 [BRD3731]
sensitization to asparaginase by isoform-selective GSK3 inhibitor (CCRF-CEM cells): only modest effects | sensitization to asparaginase (SW-480 cells): had little effect | sensitization to asparaginase (HCT-15 cells): had little effect

Cc1c[nH]c(-c2cnc(NCCNc3ccc(C#N)cn3)nc2-c2ccc(Cl)cc2Cl)n1 [CHIR99021]
sensitization to other antileukemic drugs (CCRF-CEM cells; CHIR99021 1 μM, 8 days, vincristine, 6-mercaptopurine, dexamethasone, doxorubicin): Nor did it sensitize leukemic cells to other commonly used antileukemic drugs | asparaginase sensitization [3]: induced significant asparaginase sensitization | sensitization to asparaginase (SW-480 cells): sufficient to induce asparaginase sensitization | sensitization to asparaginase (HCT-15 cells): sufficient to induce asparaginase sensitization | toxicity of asparaginase to normal progenitors with GSK3 inhibitor [4]: did not increase the toxicity of asparaginase | toxicity of GSK3 inhibition combined with asparaginase to normal colonic cells (CCD-841 cells): little toxicity

CO[C@H]1C[C@@H]2CC[C@@H](C)[C@@](O)(O2)C(=O)C(=O)N2CCCC[C@H]2C(=O)O[C@H]([C@H](C)C[C@@H]2CC[C@@H](OCCO)[C@H](OC)C2)CC(=O)[C@H](C)/C=C(\C)[C@@H](O)[C@@H](OC)C(=O)[C@H](C)C[C@H](C)/C=C/C=C/C=C/1C [RAD001]
effect on Wnt-induced sensitization to asparaginase (CCRF-CEM cells; 8 days): had no effect

CC(C)C[C@H](NC(=O)[C@H](Cc1ccccc1)NC(=O)c1cnccn1)B(O)O [bortezomib]
single-agent toxicity (CCRF-CEM cells; 10 nM dose): lacked single-agent toxicity | sensitization to asparaginase by proteasome inhibition (CCRF-CEM cells; bortezomib 10 nM, 8 days): phenocopied Wnt-induced sensitization to asparaginase | toxicity (viability), dose range (CCRF-CEM cells; indicated doses, 48 hours (FIG. 10)): highly toxic at intermediate doses

B1: Wnt3A: Wnt ligand, recombinant protein (R&D systems) (protein, UniProt P56704 19-352, looked up)
Protein Wnt-3a: SYPIWWSLAVGPQYSSLGSQPILCASIPGLVPKQLRFCRNYVEIMPSVAEGIKIGIQECQHQFRGRRWNCTTVHDSLAIFGPVLDKATRESAFVHAIASAGVAFAVTRSCAEGTAAICGCSSRHQGSPGKGWKWGGCSEDIEFGGMVSREFADARENRPDARSAMNRHNNEAGRQAIASHMHLKCKCHGLSGSCEVKTCWWSQPDFRAIGDFLKDKYDSASEMVVEKHRESRGWVETLRPRYTYFKVPTERDLVYYEASPNFCEPNPETGSFGTRDRTCNVSSHGIDGCDLLCCGRGHNARAERRREKCRCVFHWCCYVSCQECTRVYDVHTCK
sensitization to asparaginase by Wnt ligand (CCRF-CEM cells; 100 ng/ml Wnt3A, 8 days): phenocopied
